In article PMC7523345 (Investigational new drugs, 2018):
“Also recorded” adds a separate entry of the source.

Test: Phase I dose escalation study: safety, tolerability, DLT and MTD
Type: in vivo

## Cc1cccc2c1NC(=O)[C@@H](NC(=O)[C@H](CCC(F)(F)F)[C@H](CCC(F)(F)F)C(N)=O)N=C2c1cccc(F)c1 [BMS-986115]
Arm B BIW 4 mg (N = 2)
  Hypokalaemia (drug related AE, Grade 3 and 4): 0 n (%)
  Hypokalaemia (drug related AE, all grades): 1 (50) n (%)
  Hyponatraemia (drug related AE, Grade 3 and 4): 0 n (%)
  Hyponatraemia (drug related AE, all grades): 0 n (%)
  Hypophosphataemia (drug related AE, Grade 3 and 4): 1 (50) n (%)
  Hypophosphataemia (drug related AE, all grades): 1 (50) n (%)
  Ileus (drug related AE, Grade 3 and 4): 0 n (%)
  Increased upper airway secretion (drug related AE, all grades): 1 (50) n (%)
  Laryngeal pain (drug related AE, all grades): 0 n (%)
  Leucocytosis (drug related AE, Grade 3 and 4): 0 n (%)
  Mouth ulceration (drug related AE, all grades): 0 n (%)
  Nausea (drug related AE, Grade 3 and 4): 0 n (%)
  Nausea (drug related AE, all grades): 0 n (%)
  Pruritus (drug related AE, Grade 3 and 4): 0 n (%)
  Pruritus (drug related AE, all grades): 1 (50) n (%)
  Pulmonary embolism (drug related AE, Grade 3 and 4): 0 n (%)
  Rash (drug related AE, all grades): 0 n (%)
  Rash maculopapular (drug related AE, all grades): 1 (50) n (%)
  Sinusitis (drug related AE, all grades): 0 n (%)
  Urticaria (drug related AE, Grade 3 and 4): 0 n (%)
  Vision blurred (drug related AE, all grades): 0 n (%)
  Vomiting (drug related AE, Grade 3 and 4): 0 n (%)
  Vomiting (drug related AE, all grades): 0 n (%)
  Weight decreased (drug related AE, all grades): 0 n (%)
Arm B BIW 8 mg
  Description of DLT: Gr 3 diarrhoea; Gr 3 nausea/dehydration/anorexia with Gr 2 fatigue; also recorded: G3 diarrhoea; also recorded: G3 nausea/dehydration/anorexia
  Description of study drug toxicity that led to treatment discontinuation: G3 Diarrhoea (N = 1); also recorded: G3 Dehydration and anorexia (N = 1)
Arm B BIW 8 mg (N = 8)
  Abdominal distension (drug related AE, all grades): 0 n (%)
  Abdominal pain (drug related AE, Grade 3 and 4): 0 n (%)
  Abdominal pain (drug related AE, all grades): 0 n (%)
  Blood creatinine increased (drug related AE, all grades): 1 (13) n (%)
  Colitis (drug related AE, Grade 3 and 4): 0 n (%)
  Cough (drug related AE, Grade 3 and 4): 0 n (%)
  Cough (drug related AE, all grades): 1 (13) n (%)
  Decreased Appetite (drug related AE, Grade 3 and 4): 1 (13) n (%)
  Decreased Appetite (drug related AE, all grades): 5 (63) n (%)
  Dehydration (drug related AE, Grade 3 and 4): 1 (13) n (%)
  Dehydration (drug related AE, all grades): 2 (25) n (%)
  Dermatitis acneiform (drug related AE, all grades): 0 n (%)
  Diarrhoea (drug related AE, Grade 3 and 4): 2 (25) n (%)
  Diarrhoea (drug related AE, all grades): 7 (88) n (%)
  Dry mouth (drug related AE, all grades): 1 (13) n (%)
  Dry skin (drug related AE, all grades): 2 (25) n (%)
  Dysgeusia (drug related AE, all grades): 1 (13) n (%)
  Dyspepsia (drug related AE, all grades): 0 n (%)
  Dysphonia (drug related AE, all grades): 1 (13) n (%)
  Fatigue (drug related AE, Grade 3 and 4): 0 n (%)
  Fatigue (drug related AE, all grades): 4 (50) n (%)
  Flatulence (drug related AE, all grades): 2 (25) n (%)
  Hypocalcaemia (drug related AE, Grade 3 and 4): 1 (13) n (%)
  Hypocalcaemia (drug related AE, all grades): 1 (13) n (%)
  Hypokalaemia (drug related AE, Grade 3 and 4): 0 n (%)
  Hypokalaemia (drug related AE, all grades): 2 (25) n (%)
  Hyponatraemia (drug related AE, Grade 3 and 4): 1 (13) n (%)
  Hyponatraemia (drug related AE, all grades): 1 (13) n (%)
  Hypophosphataemia (drug related AE, Grade 3 and 4): 4 (50) n (%)
  Hypophosphataemia (drug related AE, all grades): 5 (63) n (%)
  Ileus (drug related AE, Grade 3 and 4): 0 n (%)
  Increased upper airway secretion (drug related AE, all grades): 2 (25) n (%)
  Laryngeal pain (drug related AE, all grades): 0 n (%)
  Leucocytosis (drug related AE, Grade 3 and 4): 1 (13) n (%)
  Mouth ulceration (drug related AE, all grades): 1 (13) n (%)
  Nausea (drug related AE, Grade 3 and 4): 1 (13) n (%)
  Nausea (drug related AE, all grades): 6 (75) n (%)
  Pruritus (drug related AE, Grade 3 and 4): 0 n (%)
  Pruritus (drug related AE, all grades): 2 (25) n (%)
  Pulmonary embolism (drug related AE, Grade 3 and 4): 0 n (%)
  Rash (drug related AE, all grades): 3 (38) n (%)
  Rash maculopapular (drug related AE, all grades): 2 (25) n (%)
  Sinusitis (drug related AE, all grades): 0 n (%)
  Urticaria (drug related AE, Grade 3 and 4): 0 n (%)
  Vision blurred (drug related AE, all grades): 1 (13) n (%)
  Vomiting (drug related AE, Grade 3 and 4): 0 n (%)
  Vomiting (drug related AE, all grades): 4 (50) n (%)
  Weight decreased (drug related AE, all grades): 0 n (%)
Arm B BIW 8 mg, 6 DLT evaluable patients
  No. of patients with DLTs: 2
Arm B BIW Total (N = 12)
  Abdominal distension (drug related AE, all grades): 1 (8) n (%)
  Abdominal pain (drug related AE, Grade 3 and 4): 0 n (%)
  Abdominal pain (drug related AE, all grades): 1 (8) n (%)
  Blood creatinine increased (drug related AE, all grades): 1 (8) n (%)
  Colitis (drug related AE, Grade 3 and 4): 0 n (%)
  Cough (drug related AE, Grade 3 and 4): 0 n (%)
  Cough (drug related AE, all grades): 1 (8) n (%)
  Decreased Appetite (drug related AE, Grade 3 and 4): 1 (8) n (%)
  Decreased Appetite (drug related AE, all grades): 5 (42) n (%)
  Dehydration (drug related AE, Grade 3 and 4): 1 (8) n (%)
  Dehydration (drug related AE, all grades): 2 (17) n (%)
  Dermatitis acneiform (drug related AE, all grades): 0 n (%)
  Diarrhoea (drug related AE, Grade 3 and 4): 3 (25) n (%)
  Diarrhoea (drug related AE, all grades): 8 (67) n (%)
  Dry mouth (drug related AE, all grades): 1 (8) n (%)
  Dry skin (drug related AE, all grades): 2 (17) n (%)
  Dysgeusia (drug related AE, all grades): 2 (17) n (%)
  Dyspepsia (drug related AE, all grades): 1 (8) n (%)
  Dysphonia (drug related AE, all grades): 1 (8) n (%)
  Fatigue (drug related AE, Grade 3 and 4): 0 n (%)
  Fatigue (drug related AE, all grades): 6 (50) n (%)
  Flatulence (drug related AE, all grades): 3 (25) n (%)
  Hypocalcaemia (drug related AE, Grade 3 and 4): 1 (8) n (%)
  Hypocalcaemia (drug related AE, all grades): 1 (8) n (%)
  Hypokalaemia (drug related AE, Grade 3 and 4): 0 n (%)
  Hypokalaemia (drug related AE, all grades): 3 (25) n (%)
  Hyponatraemia (drug related AE, Grade 3 and 4): 1 (8) n (%)
  Hyponatraemia (drug related AE, all grades): 1 (8) n (%)
  Hypophosphataemia (drug related AE, Grade 3 and 4): 6 (50) n (%)
  Hypophosphataemia (drug related AE, all grades): 7 (58) n (%)
  Ileus (drug related AE, Grade 3 and 4): 0 n (%)
  Increased upper airway secretion (drug related AE, all grades): 3 (25) n (%)
  Laryngeal pain (drug related AE, all grades): 0 n (%)
  Leucocytosis (drug related AE, Grade 3 and 4): 1 (8) n (%)
  Mouth ulceration (drug related AE, all grades): 1 (8) n (%)
  Nausea (drug related AE, Grade 3 and 4): 1 (8) n (%)
  Nausea (drug related AE, all grades): 7 (58) n (%)
  Pruritus (drug related AE, Grade 3 and 4): 0 n (%)
  Pruritus (drug related AE, all grades): 3 (25) n (%)
  Pulmonary embolism (drug related AE, Grade 3 and 4): 0 n (%)
  Rash (drug related AE, all grades): 3 (25) n (%)
  Rash maculopapular (drug related AE, all grades): 3 (25) n (%)
  Sinusitis (drug related AE, all grades): 0 n (%)
  Urticaria (drug related AE, Grade 3 and 4): 0 n (%)
  Vision blurred (drug related AE, all grades): 1 (8) n (%)
  Vomiting (drug related AE, Grade 3 and 4): 0 n (%)
  Vomiting (drug related AE, all grades): 4 (33) n (%)
  Weight decreased (drug related AE, all grades): 0 n (%)
Arm B BIW, all dose levels
  Patients with dose limiting toxicities: 2 patients
Arm B BIW, one line per subject
  Treatment-related SAEs, description: Gr 3 diarrhoea; also recorded: Gr 3 nausea, dehydration and decreased appetite
Arm B, twice weekly (BIW) oral dosing
  Maximum Tolerated Dose (MTD): not established
All 36 patients
  Treatment-related deaths: no treatment-related deaths
All 36 subjects
  Subjects who discontinued due to treatment-related AEs: 5 subjects
  Subjects who discontinued treatment due to AEs: 25%
  Subjects with treatment-related SAEs: 22%
All 36 subjects, overall
  Subjects with SAEs: 50%
All patients
  Hypokalaemia, treatment-related Gr 3 or 4 AE: 11%
  Hyponatraemia, treatment-related Gr 3 or 4 AE: 6%
  Nausea, treatment-related Gr 3 or 4 AE: 11%
All patients, all grades
  Decreased appetite, treatment related AE: 36%
  Diarrhoea, treatment related AE: 72%
  Hypokalaemia, treatment related AE: 28%
  Hypophosphataemia, treatment related AE: 64%
  Nausea, treatment related AE: 61%
  Rash, treatment related AE: 31%
All treated subjects
  Diarrhoea, AE regardless of causality: 72%
